From US20140073760A1, “USE OF AN ANG-(1-7) RECEPTOR AGONIST IN ACUTE LUNG INJURY” (Charite-Universitatsmedizin Berlin, priority 2008, published 2014)
“Also recorded” adds a separate entry of the source. Non-standard residues stand in square brackets, D forms with d. No end group written: not given here.

System: oleic acid induced acute lung injury
Assay: Oleic acid induced acute lung injury (ALI) in anesthetized, ventilated rats
Assay type: in vivo, male Sprague-Dawley rats
Conditions: rat
Protocol: Experiments were performed in male Sprague-Dawley rats (Charles River Wiga GmbH, Sulzfeld, Germany) with a body weight (bw) of 330-360 g. Animals received care in accordance with the Guide for the Care and Use of Laboratory Animals (Institute of Laboratory Animal Resources, 7th edition 1996). The study was approved by the local animal care and use committee.
Rats were anesthetized by intraperitoneal injection of medetomidine (0.5 mg/kg bw, Domitor®, Dr. E. Graeub AG, Basel, Switzerland), fentanyl (0.05 mg/kg bw, JanssenCilag, Neuss, Germany) and midazolam (5 mg/kg bw, Dormicum®, Roche, Basel, Switzerland) as previously described (17). Following tracheotomy, the trachea was cannulated and ventilation was established (Advanced Animal Respirator, TSE Systems GmbH, Bad Homburg, Germany) with a tidal volume of 6 ml/kg bw at 80 breaths/min. Catheters (internal diameter 0.58 mm; Sims Portex Ltd., Hythe, United Kingdom) were introduced into the left carotid artery and the right internal jugular vein for monitoring of arterial blood pressure (AP), fluid replacement and drug delivery as previously described (18). An ultrasonic flowprobe (Transonic®, Transonic Systems Inc., Ithaca, N.Y.) was placed around the ascending aorta distal to the branching of the coronary arteries for continuous monitoring of cardiac output (CO). After median thoracotomy, a catheter was introduced via the right ventricle into the pulmonary artery for measurement of pulmonary artery pressure (PAP). AP, PAP and CO were continuously recorded by the software package DasyLab 32 (DasyLab, Moenchengladbach, Germany). Pulmonary vascular resistance (PVR) was calculated as arteriovenous pressure differences over flow under the assumption of a constant left atrial pressure of 2 mmHg.
In group 2 (OA), ALI was induced by intravenous infusion of 0.2 mg/kg oleic acid (Sigma, Munich, Germany) over 30 min in the absence of any treatment. In group 3 (OA+Ang-(1-7)), ALI was induced as in group II, and infusion of Ang-(1-7) at 5 pmol/kg per min was initiated immediately after ALI induction. In group 4 (OA+AVE0991), ALI was induced as in group II, and infusion of AVE0991 at 500 pmol/kg per min was initiated immediately after ALI induction. In two additional groups of n=6 each, in which only myeloperoxidase (MPO) activity was measured, infusion of the Ang-(1-7) receptor blocker A779 (10 pmol/kg per min) was initiated either alone (group 5) or in combination with Ang-(1-7) (5 pmol/kg per min; group 6) immediately after induction of ALI.
After surgical preparation and hemodynamic stabilization over at least 15 min, baseline hemodynamics were recorded and arterial blood gases analyzed (RapidLab 348; Chiron Diagnostics GmbH, Fernwald, Germany). Removed blood volume was replaced by hydroxyethyl starch (6% hydroxyethyl starch 200/0.6; Fresenius, Bad Homburg, Germany). Immediately after baseline recordings, 0.2 mg/kg oleic acid was infused intravenously over 30 min in groups II-VI or an equal volume of 0.9% NaCl in group I. In all groups, measurements were repeated in 60 min intervals up to a total of 4 h at which time animals were sacrificed by exsanguination. After in situ ligation of the right main bronchus, lungs were excised and processed for determination of wet-to-dry weight ratio and myeloperoxidase (MPO) activity as described below.
For determination of lung water content, wet-to-dry weight ratio was measured by use of the microwave drying technique (18). Recruitment of inflammatory cells was analyzed by measurements of MPO activity in lung homogenates as previously described (19). In brief, MPO activity was determined by a 3,3′-5,5′-tetramethylbenzidine (TMB)-based photometric assay, compared to appropriate standard curves, and expressed as units per gram lung tissue (U/g).
All data are presented as mean±SEM. Data were tested by Kruskal-Wallis test for differences between groups. Statistical significance was assumed at P<0.05.

Substance | rescue effect of Ang-(1-7) infusion on OA-induced ALI (lung MPO activity) (A779 10 pmol/kg per min in combination with Ang-(1-7) 5 pmol/kg per min after OA, only MPO measured) | OA-induced ALI (lung MPO activity) (A779 infusion 10 pmol/kg per min alone after OA, only MPO measured) | OA-induced change in lung wet-to-dry weight ratio (Ang-(1-7) infusion 5 pmol/kg per min after OA, 4 h, FIG. 1(B)) | systemic arterial pressure (systemic hypotension in OA-infused rats) (Ang-(1-7) infusion 5 pmol/kg per min after OA, 4 h, FIG. 1(C)) | OA-induced change in pulmonary vascular resistance (Ang-(1-7) infusion 5 pmol/kg per min after OA, 4 h, FIG. 1(D)) | OA-induced change in lung MPO activity (Ang-(1-7) infusion 5 pmol/kg per min after OA, 4 h, lung homogenates, FIG. 1(A)) | development of OA-induced ALI (OA 0.2 mg/kg i.v. over 30 min, Ang-(1-7) infusion 5 pmol/kg per min started immediately after ALI induction, 4 h) | lung oedema and inflammation in oleic-acid induced ALI (infusion after OA, conclusion of the study)
Asp^1-Arg^2-Val^3-Tyr^4-Ile^5-His^6-D-Ala^7 (DRVYIH[dA]) [A779, reference compound] | blocks the rescue effect of Ang-(1-7) infusion; also recorded: lost after Mas blockade | aggravates OA-induced ALI; also recorded: aggravated after Mas blockade | – | – | – | – | – | –
Asp^1-Arg^2-Val^3-Tyr^4-Ile^5-His^6-Pro^7 [Ang-(1-7)] | – | – | abrogated OA-induced changes | attenuated systemic hypotension | abrogated OA-induced changes | abrogated OA-induced changes | completely prevented the development of OA-induced ALI | completely prevents lung oedema and inflammation
